Measurements as given in patent US20100292150A1, “Treatment of Menorrhagia with Aromatase Inhibitor” (MEDITRINA PHARMACEUTICALS, INC., priority 2007, published 2010).

How the values were obtained:
[1] = marketed in the US for long-term chronic breast cancer therapy (five years and beyond); cited from earlier work
[2] = test system: Women with menorrhagia; experiment: Safety profile of anastrozole compared to placebo in the same study; type: in vivo; conditions: 26 days of anastrozole
Description: (§1) Women with menorrhagia were enrolled in the study and divided into two groups—one as Treatment Group and the other as Control Group. Administering of anastrozole to the women in the Treatment Group started on the second day of the menstrual cycle and lasted for 26 days. In some cases, the administration started on the third day due to site scheduling limitations. Conversely, the women in the Control Group received placebo during the same period. Data on the mean menstrual bleeding severity score were recorded on a daily basis according to the following categories of vaginal bleeding: 0=none; 1=spotting; 2=mild bleeding; 3=moderate bleeding; and 4=heavy bleeding.
The observation above was contrasted by women who received anastrozole for 26 consecutive days (Treatment Group). On Study Day 1, which corresponds to Cycle Day 2 as with the Control Group, the women were administered 20 mg of anastrozole in the clinic office and then […] for the remaining 25 days.

[3] = test system: healthy premenopausal women; conditions: 5, 10, 15 and 20 mg, single and multiple dose; 26 healthy premenopausal women; cited from earlier work
[4] = test system: Women with menorrhagia; experiment: Daily menstrual bleeding severity score in women receiving anastrozole for 26 days vs placebo; type: in vivo
Description: as §1
In the Control Group, within 6 days, the average score was down to about zero. Over the next 20 days, the fluctuations in menstrual bleeding severity would also be considered typical in that some women experience “breakthrough bleeding” which was reflected in the deviation from zero that would be expected in models of normal cycles, but was not reflected in reality. This was particularly notable during the second half of the menstrual cycle.
The observation above was contrasted by women who received anastrozole for 26 consecutive days (Treatment Group). […]

SMILES	general safety [1]	safety liabilities [2]	adverse events [3]	reported bleeding over the remaining days of treatment ([4]; 20 mg on Study Day 1, then 10 mg/day for remaining 25 days, contrasted with placebo)	mean bleeding severity at the start of the treatment interval ([4]; score 0=none to 4=heavy bleeding, Study Day 1 = Cycle Day 2, 20 mg anastrozole on day 1)
N#Cc1ccc(C(c2ccc(C#N)cc2)n2cncn2)cc1 [letrozole]	generally accepted as safe drugs	–	–	–	–
CC(C)(C#N)c1cc(Cn2cncn2)cc(C(C)(C)C#N)c1 [anastrozole]	generally accepted as safe drugs	does not appear to have any significant safety liabilities	no severe, serious, or otherwise significant adverse events	no bleeding or spotting reported until the very end of the cycle	~3
C=C1C[C@@H]2[C@H](CC[C@]3(C)C(=O)CC[C@@H]23)[C@@]2(C)C=CC(=O)C=C12 [exemestane]	generally accepted as safe drugs	–	–	–	–
